Experimental data taken from US20100286145A1, “ISOPHTHALAMIDE DERIVATIVES INHIBITING BETA-SECRETASE ACTIVITY” (CoMentis, Inc., priority 2007, published 2010).

Experiments:
[1] = target: memapsin 2 (Homo sapiens, UniProt P56817); assay: Inhibition of memapsin 2 beta-secretase activity (fluorogenic substrate FS-2); type: biochemical; conditions: memapsin 2, pH 4, 37° C., 20 minutes pre-incubation; read-out: M2Ki
Summary of the method: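 Memapsin 2 pre-incubated 20 min with compound at pH 4, 37° C, then FS-2 substrate (MCA-SEVNLDAEFK-DNP, APP Swedish cleavage site) added. Rate of fluorescence increase compared with uninhibited controls, fitted to a tight-binding inhibition model.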

[2] = test system: Aβ production in Chinese hamster ovary cells that over-express human APP695 with the London and Swedish mutations; assay: Cellular Aβ IC50 determination (Aβ40 sandwich ELISA); type: cell-based; conditions: Cricetulus griseus; cellular Aβ production; read-out: IC50
Summary of the method: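 CHO cells overexpressing human APP695 with London and Swedish mutations, seeded at 10% confluency, treated with compounds up to about 4 μM final (0.4% DMSO). Secreted Aβ40 measured by sandwich ELISA relative to control and fitted to a 4-parameter IC50 model.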

Sequence of memapsin 2 (P56817 46-501): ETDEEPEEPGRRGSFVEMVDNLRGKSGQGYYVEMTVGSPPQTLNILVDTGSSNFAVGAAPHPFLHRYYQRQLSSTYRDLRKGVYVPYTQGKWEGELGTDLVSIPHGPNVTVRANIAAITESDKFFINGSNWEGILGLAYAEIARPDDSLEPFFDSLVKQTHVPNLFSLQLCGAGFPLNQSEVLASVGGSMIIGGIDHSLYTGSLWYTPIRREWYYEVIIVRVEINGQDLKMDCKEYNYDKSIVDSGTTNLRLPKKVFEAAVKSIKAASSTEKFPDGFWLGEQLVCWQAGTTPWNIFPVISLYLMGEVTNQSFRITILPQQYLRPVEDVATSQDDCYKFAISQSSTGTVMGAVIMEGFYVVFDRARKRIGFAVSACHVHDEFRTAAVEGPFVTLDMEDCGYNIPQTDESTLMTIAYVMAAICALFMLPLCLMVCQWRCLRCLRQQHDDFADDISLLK

Ki [1]	IC50 [2]	SMILES
< 300 nM	< 1000 nM	CCN(CC)c1cc(C(=O)N[C@@H](Cc2ccccc2)[C@H](O)CNCc2cccc(OC)c2)cc(C(=O)N(C)Cc2nc(C)cs2)c1 [Compound 169, 5-(diethylamino)-N1-((2S,3R)-3-hydroxy-4-(3-methoxybenzylamino)-1-phenylbutan-2-yl)-N3-methyl-N3-((4-methylthiazol-2-yl)methyl)isophthalamide]
301 to 500 nM	1000 to 5000 nM	Cc1csc(CN(C)C(=O)c2cccc(C(=O)N[C@@H](Cc3ccccc3)[C@H](O)CNCc3cncc(C#N)c3)c2)n1 [Compound 171, N1-((2S,3R)-4-((5-cyanopyridin-3-yl)methylamino)-3-hydroxy-1-phenylbutan-2-yl)-N3-methyl-N3-((4-methylthiazol-2-yl)methyl)isophthalamide]
< 300 nM	< 1000 nM	CCN(CC)c1cc(C(=O)N[C@@H](Cc2ccccc2)[C@H](O)CNCc2cncc(C(C)C)c2)cc(C(=O)N(C)Cc2nc(C)cs2)c1 [Compound 172, 5-(diethylamino)-N1-((2S,3R)-3-hydroxy-4-((5-isopropylpyridin-3-yl)methylamino)-1-phenylbutan-2-yl)-N3-methyl-N3-((4-methylthiazol-2-yl)methyl)isophthalamide]
< 300 nM	< 1000 nM	Cc1csc(CN(C)C(=O)c2cccc(C(=O)N[C@@H](Cc3ccccc3)[C@H](O)CNCc3cccc(C(C)Cl)c3)c2)n1 (stereo partly drawn) [Compound 173, N1-((2S,3R)-4-(3-(1-chloroethyl)benzylamino)-3-hydroxy-1-phenylbutan-2-yl)-N3-methyl-N3-((4-methylthiazol-2-yl)methyl)isophthalamide]
< 300 nM	< 1000 nM	COc1cccc(CNC[C@@H](O)[C@H](Cc2ccccc2)NC(=O)c2cc(C(=O)N(C)Cc3nc(C)cs3)cc(-c3ccccn3)c2)c1 [Compound 174, N1-((2S,3R)-3-hydroxy-4-(3-methoxybenzylamino)-1-phenylbutan-2-yl)-N3-methyl-N3-((4-methylthiazol-2-yl)methyl)-5-(pyridin-2-yl)isophthalamide]
> 501 nM	> 5000 nM	Cc1csc(CN(C)C(=O)c2cccc(C(=O)N[C@@H](Cc3ccccc3)[C@H](O)CNCc3cc(CNS(C)(=O)=O)cc(C(C)C)c3)c2)n1 [Compound 175, N1-((2S,3R)-3-hydroxy-4-(3-isopropyl-5-(methylsulfonamidomethyl)benzylamino)-1-phenylbutan-2-yl)-N3-methyl-N3-((4-methylthiazol-2-yl)methyl)isophthalamide]
< 300 nM	< 1000 nM	Cc1csc(CN(C)C(=O)c2cc(CF)cc(C(=O)N[C@@H](Cc3ccccc3)[C@H](O)CNCc3cncc(C(C)C)c3)c2)n1 [Compound 176, 5-(fluoromethyl)-N1-((2S,3R)-3-hydroxy-4-((5-isopropylpyridin-3-yl)methylamino)-1-phenylbutan-2-yl)-N3-methyl-N3-((4-methylthiazol-2-yl)methyl)isophthalamide]
< 300 nM	< 1000 nM	Cc1csc(CN(C)C(=O)c2cc(C(=O)N[C@@H](Cc3ccccc3)[C@H](O)CNCc3cc(C(C)C)nc(N)n3)cc(-c3ncco3)c2)n1 [Compound 177, N1-((2S,3R)-4-((2-amino-6-isopropylpyrimidin-4-yl)methylamino)-3-hydroxy-1-phenylbutan-2-yl)-N3-methyl-N3-((4-methylthiazol-2-yl)methyl)-5-(oxazol-2-yl)isophthalamide]
< 300 nM	< 1000 nM	Cc1csc(CN(C)C(=O)c2cc(C(=O)N[C@@H](Cc3ccccc3)[C@H](O)CNCc3cc(OS(C)(=O)=O)cc(C(C)C)c3)cc(N(C)C)c2)n1 [Compound 178, 3-(((2R,3S)-3-(3-(dimethylamino)-5-(methyl((4-methylthiazol-2-yl)methyl)carbamoyl)benzamido)-2-hydroxy-4-phenylbutylamino)methyl)-5-isopropylphenyl methanesulfonate]
< 300 nM	< 1000 nM	COc1cccc(CNC[C@@H](O)[C@H](Cc2ccccc2)NC(=O)c2cc(C(=O)N(C)Cc3nc(C)cs3)cc(N3CCCC3)c2)c1 [Compound 179, N1-((2S,3R)-3-hydroxy-4-(3-methoxybenzylamino)-1-phenylbutan-2-yl)-N3-methyl-N3-((4-methylthiazol-2-yl)methyl)-5-(pyrrolidin-1-yl)isophthalamide]
< 300 nM	< 1000 nM	Cc1csc(CN(C)C(=O)c2cc(C(=O)N[C@@H](Cc3ccccc3)[C@H](O)CNCc3cncc(C(C)C)c3)cc(N3CCCC3)c2)n1 [Compound 180, N1-((2S,3R)-3-hydroxy-4-((5-isopropylpyridin-3-yl)methylamino)-1-phenylbutan-2-yl)-N3-methyl-N3-((4-methylthiazol-2-yl)methyl)-5-(pyrrolidin-1-yl)isophthalamide]
< 300 nM	< 1000 nM	Cc1csc(CN(C)C(=O)c2cc(C(=O)N[C@@H](Cc3ccccc3)[C@H](O)CNCc3cncc(C(C)C)c3)cc(-c3ccccn3)c2)n1 [Compound 181, N1-((2S,3R)-3-hydroxy-4-((5-isopropylpyridin-3-yl)methylamino)-1-phenylbutan-2-yl)-N3-methyl-N3-((4-methylthiazol-2-yl)methyl)-5-(pyridin-2-yl)isophthalamide]
< 300 nM	< 1000 nM	Cc1csc(CN(C)C(=O)c2cccc(C(=O)N[C@@H](Cc3ccccc3)[C@H](O)CN[C@@H](C)c3cncc(C(C)C)c3)c2)n1 [Compound 182, N1-((2S,3R)-3-hydroxy-4-((S)-1-(5-isopropylpyridin-3-yl)ethylamino)-1-phenylbutan-2-yl)-N3-methyl-N3-((4-methylthiazol-2-yl)methyl)isophthalamide]
301 to 500 nM	1000 to 5000 nM	Cc1csc(CN(C)C(=O)c2cccc(C(=O)N[C@@H](Cc3cscn3)[C@H](O)CNCc3cncc(C(C)C)c3)c2)n1 [Compound 183, N1-((2S,3R)-3-hydroxy-4-((5-isopropylpyridin-3-yl)methylamino)-1-(thiazol-4-yl)butan-2-yl)-N3-methyl-N3-((4-methylthiazol-2-yl)methyl)isophthalamide]
< 300 nM	< 1000 nM	Cc1csc(CN(C)C(=O)c2cccc(C(=O)N[C@@H](Cc3ccccc3)[C@H](O)CNCc3cccc(C(C)(C)O)c3)c2)n1 [Compound 184, N1-((2S,3R)-3-hydroxy-4-(3-(2-hydroxypropan-2-yl)benzylamino)-1-phenylbutan-2-yl)-N3-methyl-N3-((4-methylthiazol-2-yl)methyl)isophthalamide]
< 300 nM	< 1000 nM	Cc1csc(CN(C)C(=O)c2cccc(C(=O)N[C@@H](Cc3ccccc3)[C@H](O)CNCc3cc(N(C)C)cc(N(C)C)c3)c2)n1 [Compound 185, N1-((2S,3R)-4-(3,5-bis(dimethylamino)benzylamino)-3-hydroxy-1-phenylbutan-2-yl)-N3-methyl-N3-((4-methylthiazol-2-yl)methyl)isophthalamide]
< 300 nM	< 1000 nM	Cc1csc(CN(C(=O)c2cc(C(=O)N[C@@H](Cc3ccccc3)[C@H](O)CNCc3cncc(C(C)C)c3)cc(-c3ncco3)c2)C2CC2)n1 [Compound 186, N1-cyclopropyl-N3-((2S,3R)-3-hydroxy-4-((5-isopropylpyridin-3-yl)methylamino)-1-phenylbutan-2-yl)-N1-((4-methylthiazol-2-yl)methyl)-5-(oxazol-2-yl)isophthalamide]
< 300 nM	> 5000 nM	COc1cccc(CNC[C@@H](O)[C@H](Cc2ccccc2)NC(=O)c2cc(C(=O)NCc3nc(C)cs3)cc(N3CCCC3)c2)c1 [Compound 187, N1-((2S,3R)-3-hydroxy-4-(3-methoxybenzylamino)-1-phenylbutan-2-yl)-N3-((4-methylthiazol-2-yl)methyl)-5-(pyrrolidin-1-yl)isophthalamide]
< 300 nM	< 1000 nM	CCS(=O)(=O)c1cc(CNC[C@@H](O)[C@H](Cc2ccccc2)NC(=O)c2cccc(C(=O)N(C)Cc3nc(C)cs3)c2)cc(C(C)C)c1 [Compound 188, N1-((2S,3R)-4-(3-(ethylsulfonyl)-5-isopropylbenzylamino)-3-hydroxy-1-phenylbutan-2-yl)-N3-methyl-N3-((4-methylthiazol-2-yl)methyl)isophthalamide]
< 300 nM	< 1000 nM	COc1cccc(CNC[C@@H](O)[C@H](Cc2ccccc2)NC(=O)c2cc(C(=O)N(C)Cc3nc(C)cs3)cc(-c3cccnc3)c2)c1 [Compound 189, N1-((2S,3R)-3-hydroxy-4-(3-methoxybenzylamino)-1-phenylbutan-2-yl)-N3-methyl-N3-((4-methylthiazol-2-yl)methyl)-5-(pyridin-3-yl)isophthalamide]
< 300 nM	< 1000 nM	Cc1csc(CN(C)C(=O)c2cccc(C(=O)N[C@@H](Cc3ccccc3)[C@H](O)CNCc3cncc(C(C)(C)C)c3)c2)n1 [Compound 190, N1-((2S,3R)-4-((5-tert-butylpyridin-3-yl)methylamino)-3-hydroxy-1-phenylbutan-2-yl)-N3-methyl-N3-((4-methylthiazol-2-yl)methyl)isophthalamide]
> 501 nM	> 5000 nM	Cc1csc(CN(C)C(=O)c2cccc(C(=O)N[C@@H](Cc3ccccc3)[C@H](O)CNCc3cccc(N)c3)c2)n1 [Compound 191, N1-((2S,3R)-4-(3-aminobenzylamino)-3-hydroxy-1-phenylbutan-2-yl)-N3-methyl-N3-((4-methylthiazol-2-yl)methyl)isophthalamide]
< 300 nM	< 1000 nM	Cc1csc(CN(C)C(=O)c2cc(CO)cc(C(=O)N[C@@H](Cc3ccccc3)[C@H](O)CNCc3cncc(C(C)C)c3)c2)n1 [Compound 192, N1-((2S,3R)-3-hydroxy-4-((5-isopropylpyridin-3-yl)methylamino)-1-phenylbutan-2-yl)-5-(hydroxymethyl)-N3-methyl-N3-((4-methylthiazol-2-yl)methyl)isophthalamide]
